Reference: patent publication US7041678B2 (priority 1999, dated 2006)
Entries after “also recorded” stand apart in the source; their conditions may differ.

Columns and labels:
[1] = tested on: nor-1 promoter; assay type: cell-based, Aspergillus parasiticus
[2] = tested on: nor-1 promoter; assay type: cell-based, Aspergillus parasiticus; remark: listed apart in the source
[3] = tested on: aflatoxin biosynthesis; assay type: cell-based, Aspergillus parasiticus SU-1
[4] = tested on: nor-1 gene; assay type: cell-based, Aspergillus parasiticus SU-1
[5] = tested on: ipnA promoter; assay type: cell-based, Aspergillus nidulans
[6] = tested on: tri5 promoter; assay type: cell-based, Gibberella zeae
[7] = tested on: ver-1 promoter; assay: Transcription from the ver-1 promoter; assay type: cell-based, Aspergillus parasiticus

With `CCCCC/C=C/CCCCCC/C=C/C=C/C(=O)N1CCCCC1` [Cp2] the “Transcription from the nor-1 promoter” value [1] was “inhibit transcription”, the “Fungus growth on TLC plates” value [2] was “Fungal growth was seen; also recorded: did not inhibit fungus growth” and the “Inhibition of GUS in TLC bioassay” value [2] was “inhibitory properties”. The “Concentration that appeared to completely inhibit biosynthesis of aflatoxin” value [3] was “greater than 26 μg/ml”, the “Amounts of aflatoxins B1 and G1” value ([3]; 2.6-78 μg/ml, 48 hours) was “reduction” and the “Transcription of the nor-1 gene” value [4] was “inhibits”. The “nor-1 transcription at lower concentrations” value [4] was “did not completely inhibit”, the “Transcription from the ipnA promoter (GUS)” value [5] was “inhibit transcription; also recorded: inhibited” and the “Transcription from the tri5 promoter (GUS)” value [6] was “inhibit transcription; also recorded: inhibited”. The “Transcription from the ver-1 promoter” value [7] was “inhibit transcription”.
